Data as given in patent publication US20160376240A1, “6 Phenyl or 6 Pyridin 3 YL Indazole Derivatives and Methods of Use” (ABBVIE INC., priority 2014, published 2016).

Each molecule was assayed against T1, TrkA (Homo sapiens, UniProt P04629) (assay: TrkA kinase inhibition, HTRF assay). Conditions: LCK peptide substrate 125 nM, TrkA 2-10 nM pre-incubated with ATP 200 μM.
T1 construct: purchased Invitrogen PV3144
Assay type: biochemical
Outline: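 TrkA (2-10 nM) preactivated 20 min with 200 μM ATP in HEPES pH 7.4 with Mg2+/Mn2+, then compound for 10 min, then 125 nM biotinylated LCK-peptide for 1 h at ambient temperature. HTRF 665/620 ratio read; IC50 fitted from initial-rate percent inhibition.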

T1 sequence (P04629 33-796): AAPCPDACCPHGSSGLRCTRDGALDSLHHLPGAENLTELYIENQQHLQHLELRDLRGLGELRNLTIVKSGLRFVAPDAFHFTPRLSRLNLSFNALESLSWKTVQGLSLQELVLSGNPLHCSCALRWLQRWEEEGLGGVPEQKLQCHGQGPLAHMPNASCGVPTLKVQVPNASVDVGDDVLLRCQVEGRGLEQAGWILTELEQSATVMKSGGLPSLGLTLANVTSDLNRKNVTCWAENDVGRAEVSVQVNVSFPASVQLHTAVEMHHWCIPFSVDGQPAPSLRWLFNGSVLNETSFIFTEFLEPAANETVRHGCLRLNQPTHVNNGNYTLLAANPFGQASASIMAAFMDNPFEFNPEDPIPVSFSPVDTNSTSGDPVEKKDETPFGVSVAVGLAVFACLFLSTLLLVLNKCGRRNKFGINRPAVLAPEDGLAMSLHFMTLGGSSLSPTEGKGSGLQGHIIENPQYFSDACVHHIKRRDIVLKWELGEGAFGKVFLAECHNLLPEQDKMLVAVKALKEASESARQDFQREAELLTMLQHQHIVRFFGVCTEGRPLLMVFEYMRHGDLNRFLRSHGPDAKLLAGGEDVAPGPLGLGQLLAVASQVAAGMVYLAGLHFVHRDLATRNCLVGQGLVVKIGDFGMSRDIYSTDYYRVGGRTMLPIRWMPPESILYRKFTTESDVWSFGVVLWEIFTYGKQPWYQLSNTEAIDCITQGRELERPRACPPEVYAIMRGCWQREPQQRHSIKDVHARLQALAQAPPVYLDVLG

IC50	SMILES
12.7 nM	CCOC(=O)N1CCN(c2cc(-c3cc(OC4CCOCC4)c4c(C)n[nH]c4c3)ccc2C(=O)NC)CC1 [Example 134, ethyl 4-{2-(methylcarbamoyl)-5-[3-methyl-4-(tetrahydro-2H-pyran-4-yloxy)-1H-indazol-6-yl]phenyl}piperazine-1-carboxylate]
9.12 nM	CNC(=O)c1ccc(-c2cc(OC3CCOCC3)c3c(C)n[nH]c3c2)cc1N1CCN(C(=O)OC)CC1 [Example 153, methyl 4-{2-(methylcarbamoyl)-5-[3-methyl-4-(tetrahydro-2H-pyran-4-yloxy)-1H-indazol-6-yl]phenyl}piperazine-1-carboxylate]
221 nM	NC(=O)c1ccc(-c2cc(OC3CCCC3)c3c(N)n[nH]c3c2)cc1N1CCC(C(N)=O)CC1 [Example 79, 1-{5-[3-amino-4-(cyclopentyloxy)-1H-indazol-6-yl]-2-carbamoylphenyl}piperidine-4-carboxamide]
59.3 nM	CNC(=O)c1ccc(-c2cc(OC3CCOCC3)c3c(C)n[nH]c3c2)cc1N1CCN(C(=O)CC(C)C)CC1 [Example 160, N-methyl-2-[4-(3-methylbutanoyl)piperazin-1-yl]-4-[3-methyl-4-(tetrahydro-2H-pyran-4-yloxy)-1H-indazol-6-yl]benzamide]
27.3 nM	CC(Oc1cc(-c2ccc(C(N)=O)c(N3CCN(C4CC4)CC3)c2)cc2[nH]nc(N)c12)C(F)(F)F (centres unmarked) [Example 97, 4-{3-amino-4-[(1,1,1-trifluoropropan-2-yl)oxy]-1H-indazol-6-yl}-2-(4-cyclopropylpiperazin-1-yl)benzamide]
6320 nM	CNC(=O)c1ccc(-c2cc(O[C@H](C)C(F)(F)F)c3c(N)n[nH]c3c2)cc1N1CCN2CCCCC2C1 (stereo partly drawn) [Example 57, 4-(3-amino-4-{[(2R)-1,1,1-trifluoropropan-2-yl]oxy}-1H-indazol-6-yl)-N-methyl-2-(octahydro-2H-pyrido[1,2-a]pyrazin-2-yl)benzamide]
11.6 nM	CNC(=O)c1ccc(-c2cc(OC3CCOCC3)c3c(N)n[nH]c3c2)cc1N1CCN(CCC(F)(F)F)CC1 [Example 168, 4-[3-amino-4-(tetrahydro-2H-pyran-4-yloxy)-1H-indazol-6-yl]-N-methyl-2-[4-(3,3,3-trifluoropropyl)piperazin-1-yl]benzamide]
62.9 nM	CC(=O)c1ccc(-c2cc(OC3CCOCC3)c3c(N)n[nH]c3c2)cc1N1CCN(c2ccccc2)CC1 [Example 13, 1-{4-[3-amino-4-(tetrahydro-2H-pyran-4-yloxy)-1H-indazol-6-yl]-2-(4-phenylpiperazin-1-yl)phenyl}ethanone]
41 nM	CC(Oc1cc(-c2ccc(C(=O)NC3CC3)c(N3CCN(c4cccnc4)CC3)c2)cc2[nH]nc(N)c12)C(F)(F)F (centres unmarked) [Example 28, 4-{3-amino-4-[(1,1,1-trifluoropropan-2-yl)oxy]-1H-indazol-6-yl}-N-cyclopropyl-2-[4-(pyridin-3-yl)piperazin-1-yl]benzamide]
4.98 nM	CC(Oc1cc(-c2ccc(C(N)=O)c(N3CCN(CCC(C)(C)C)CC3)c2)cc2[nH]nc(N)c12)C(F)(F)F (centres unmarked) [Example 100, 4-{3-amino-4-[(1,1,1-trifluoropropan-2-yl)oxy]-1H-indazol-6-yl}-2-[4-(3,3-dimethylbutyl)piperazin-1-yl]benzamide]
8440 nM	NC(=O)c1ccc(-c2ccc3c(N)n[nH]c3c2)cc1N1CCN(C2CC2)CC1 [Example 88, 4-(3-amino-1H-indazol-6-yl)-2-(4-cyclopropylpiperazin-1-yl)benzamide]
18.1 nM	CNC(=O)c1ccc(-c2cc(OC3CCOCC3)c3c(C)n[nH]c3c2)cc1N1CCN(C(=O)OCC(F)(F)F)CC1 [Example 136, 2,2,2-trifluoroethyl 4-{2-(methylcarbamoyl)-5-[3-methyl-4-(tetrahydro-2H-pyran-4-yloxy)-1H-indazol-6-yl]phenyl}piperazine-1-carboxylate]
376 nM	CNC(=O)c1ccc(-c2cc(OC3CCOCC3)c3c(N)n[nH]c3c2)cc1N1CCN(C(=O)C2CC2)CC1 [Example 32, 4-[3-amino-4-(tetrahydro-2H-pyran-4-yloxy)-1H-indazol-6-yl]-2-[4-(cyclopropylcarbonyl)piperazin-1-yl]-N-methylbenzamide]
171 nM	CNC(=O)c1ccc(-c2cc(OC3CCOCC3)c3c(C)n[nH]c3c2)cc1N1CCN(C(=O)OC(C)C(F)(F)F)CC1 (centres unmarked) [Example 163, 1,1,1-trifluoropropan-2-yl 4-{2-(methylcarbamoyl)-5-[3-methyl-4-(tetrahydro-2H-pyran-4-yloxy)-1H-indazol-6-yl]phenyl}piperazine-1-carboxylate]
41.7 nM	CNC(=O)c1ccc(-c2cc(O[C@@H](C)C(F)(F)F)c3c(N)n[nH]c3c2)cc1N1CCN(c2ccccc2)CC1 [Example 39, 4-(3-amino-4-{[(2S)-1,1,1-trifluoropropan-2-yl]oxy}-1H-indazol-6-yl)-N-methyl-2-(4-phenylpiperazin-1-yl)benzamide]
57.3 nM	CNC(=O)c1ccc(-c2cc(OC3CCOCC3)c3c(C)n[nH]c3c2)cc1N1CCN(C(=O)OCC(C)(C)C)CC1 [Example 137, 2,2-dimethylpropyl 4-{2-(methylcarbamoyl)-5-[3-methyl-4-(tetrahydro-2H-pyran-4-yloxy)-1H-indazol-6-yl]phenyl}piperazine-1-carboxylate]
3.77 nM	CC(=O)Nc1ccc(-c2cc(OC3CCOCC3)c3c(C)n[nH]c3c2)cc1N1CCN(C(=O)OC(C)(C)C)CC1 [Example 141, tert-butyl 4-{2-acetamido-5-[3-methyl-4-(tetrahydro-2H-pyran-4-yloxy)-1H-indazol-6-yl]phenyl}piperazine-1-carboxylate]
7.97 nM	NC(=O)c1ccc(-c2cc(O[C@H]3CCOC3)c3c(N)n[nH]c3c2)cc1N1CCN(c2cccnc2)CC1 [Example 67, 4-{3-amino-4-[(3S)-tetrahydrofuran-3-yloxy]-1H-indazol-6-yl}-2-[4-(pyridin-3-yl)piperazin-1-yl]benzamide]
5.5 nM	CNC(=O)c1ccc(-c2cc(OC3CCOCC3)c3c(N)n[nH]c3c2)cc1N1CCN(CC2CC(F)(F)C2)CC1 [Example 171, 4-[3-amino-4-(tetrahydro-2H-pyran-4-yloxy)-1H-indazol-6-yl]-2-{4-[(3,3-difluorocyclobutyl)methyl]piperazin-1-yl}-N-methylbenzamide]
16.1 nM	NC(=O)c1ccc(-c2ccc3c(N)n[nH]c3c2)cc1N1CCN(c2ccccn2)CC1 [Example 86, 4-(3-amino-1H-indazol-6-yl)-2-[4-(pyridin-2-yl)piperazin-1-yl]benzamide]
4.74 nM	CNC(=O)c1ccc(-c2cc(OC3CCOCC3)c3c(C)n[nH]c3c2)cc1OCCOC1CCCCC1 [Example 126, 2-[2-(cyclohexyloxy)ethoxy]-N-methyl-4-[3-methyl-4-(tetrahydro-2H-pyran-4-yloxy)-1H-indazol-6-yl]benzamide]
50.8 nM	CNC(=O)c1ccc(-c2cc(OC3CCCC3)c3c(C)n[nH]c3c2)cc1N1CCN(C(=O)OCc2ccccc2)CC1 [Example 129, benzyl 4-{5-[4-(cyclopentyloxy)-3-methyl-1H-indazol-6-yl]-2-(methylcarbamoyl)phenyl}piperazine-1-carboxylate]
2.9 nM	NC(=O)c1ccc(-c2cc(OC3CCOCC3)c3c(N)n[nH]c3c2)cc1N1CCN(c2cccc(Cl)c2)CC1 [Example 12, 4-[3-amino-4-(tetrahydro-2H-pyran-4-yloxy)-1H-indazol-6-yl]-2-[4-(3-chlorophenyl)piperazin-1-yl]benzamide]
